In brackets after ≈: the same amount, converted by molar mass.
Key:
Klebsiella pneumoniae = assay: Antibacterial activity against Klebsiella pneumoniae IID5209 after 18 hrs by agar dilution method; assay type: functional
Escherichia coli = assay: Antibacterial activity against Escherichia coli NIHJ JC2 after 18 hrs by agar dilution method; assay type: functional; settings: NIHJ JC2, 18 h
Enterococcus faecalis [1] = assay: Antibacterial activity against Enterococcus faecalis IID682 after 18 hrs by agar dilution method; assay type: functional
Streptococcus pyogenes = assay: Antibacterial activity against Streptococcus pyogenes IID692 after 18 hrs by agar dilution method; assay type: functional
Staphylococcus aureus [2] = assay: Antibacterial activity against Staphylococcus aureus Smith after 18 hrs by agar dilution method; assay type: functional
Haemophilus influenzae = assay: Antibacterial activity against Haemophilus influenzae IID983 after 18 hrs by agar dilution method; assay type: functional
Streptococcus pneumoniae [3] = assay: Antibacterial activity against Streptococcus pneumoniae type 3 after 18 hrs by agar dilution method; assay type: functional
Pseudomonas aeruginosa = assay: Antibacterial activity against Pseudomonas aeruginosa IID1210 after 18 hrs by agar dilution method; assay type: functional
Staphylococcus aureus [4] = assay: Antibacterial activity against quinoline-resistant Staphylococcus aureus OITI MR1-1002 isolate after 18 hrs by agar dilution method; assay type: functional
Streptococcus pneumoniae [5] = assay: Antibacterial activity against quinoline-resistant Streptococcus pneumoniae no.55 isolate after 18 hrs by agar dilution method; assay type: functional
Enterococcus faecalis [6] = assay: Antibacterial activity against quinoline-resistant Enterococcus faecalis No.15 isolate after 18 hrs by agar dilution method; assay type: functional
Enterococcus faecalis [7] = assay: Antibacterial activity against vancomycin-resistant Enterococcus faecalis KU1856 after 18 hrs by agar dilution method; assay type: functional
Enterococcus faecalis [8] = assay: Antibacterial activity against vancomycin-resistant Enterococcus faecalis KU1866 after 18 hrs by agar dilution method; assay type: functional
Mus musculus [9] = assay: Toxicity in ICR mouse assessed as mortality administered as single dose at 100 mg/kg, iv after 7 days; assay type: organism-based; parameters: dose 100 mg/kg, route intravenous; settings: in vivo, 168 h
Mus musculus [10] = assay: Toxicity in ICR mouse assessed as mortality administered as single dose at 200 mg/kg, iv after 7 days; assay type: organism-based; parameters: dose 200 mg/kg, route intravenous; settings: in vivo, 168 h
Mus musculus [11] = assay: Toxicity in intracerebroventricularly dosed ICR mouse assessed as induction of convulsion after 2 hrs in absence of fenbufen; assay type: organism-based; settings: in vivo, icv_or_intrathecal
Mus musculus [12] = assay: Toxicity in intracerebroventricularly dosed ICR mouse assessed as induction of convulsion after 2 hrs in presence of fenbufen; assay type: organism-based; settings: in vivo, icv_or_intrathecal
Mus musculus [13] = assay: Phototoxicity in orally dosed ICR mouse assessed as skin erythema after 72 hrs; assay type: organism-based; settings: in vivo, po
DNA gyrase [14] = target: T1, DNA gyrase (Staphylococcus aureus, UniProt P0A0K8+P20831); assay: Inhibition of Staphylococcus aureus MS5935 wild type DNA gyrase-mediated supercoiling activity; assay type: protein-complex assay
DNA gyrase [15] = target: T1, DNA gyrase; assay: Inhibition of quinoline-resistant Staphylococcus aureus MS5935 DNA gyrase-mediated supercoiling activity; assay type: protein-complex assay
[16] = Inhibition of Staphylococcus aureus MS5935 wild type topoisomerase 4-mediated decatenation activity
[17] = Inhibition of quinoline-resistant Staphylococcus aureus MS5935 topoisomerase 4-mediated decatenation activity
Staphylococcus aureus [18] = assay: Antibacterial activity against quinoline-resistant wild type Staphylococcus aureus MS5935 after 18 hrs by agar dilution method; assay type: functional
Staphylococcus aureus [19] = assay: Antibacterial activity against quinoline-resistant Staphylococcus aureus MS5935 containing single grlA mutation after 18 hrs by agar dilution method; assay type: functional
Staphylococcus aureus [20] = assay: Antibacterial activity against quinoline-resistant Staphylococcus aureus MS5935 containing single grlA and single gyrA mutation after 18 hrs by agar dilution method; assay type: functional
Staphylococcus aureus [21] = assay: Antibacterial activity against quinoline-resistant Staphylococcus aureus MS5935 containing double grlA and single gyrA mutation after 18 hrs by agar dilution method; assay type: functional
Staphylococcus aureus [22] = assay: Antibacterial activity against quinoline-resistant Staphylococcus aureus MS5935 containing double grlA and double gyrA mutation after 18 hrs by agar dilution method; assay type: functional
Staphylococcus aureus [23] = assay: Antibacterial activity against Staphylococcus aureus Smith infected in subcutaneously dosed ICR mouse administered 1 hr after bacterial challenge measured at 7 days post infection; assay type: functional; settings: sc
Staphylococcus aureus [24] = assay: Antibacterial activity against Staphylococcus aureus Smith infected in po dosed ICR mouse administered 1 hr after bacterial challenge measured at 7 days post infection; assay type: functional
Streptococcus pneumoniae [25] = assay: Antibacterial activity against Streptococcus pneumoniae type 3 infected in subcutaneously dosed ICR mouse administered 1 hr after bacterial challenge measured at 7 days post infection; assay type: functional; settings: sc
Streptococcus pneumoniae [26] = assay: Antibacterial activity against Streptococcus pneumoniae type 3 infected in po dosed ICR mouse administered 1 hr after bacterial challenge measured at 7 days post infection; assay type: functional

T1 sequence (P0A0K8 whole entry): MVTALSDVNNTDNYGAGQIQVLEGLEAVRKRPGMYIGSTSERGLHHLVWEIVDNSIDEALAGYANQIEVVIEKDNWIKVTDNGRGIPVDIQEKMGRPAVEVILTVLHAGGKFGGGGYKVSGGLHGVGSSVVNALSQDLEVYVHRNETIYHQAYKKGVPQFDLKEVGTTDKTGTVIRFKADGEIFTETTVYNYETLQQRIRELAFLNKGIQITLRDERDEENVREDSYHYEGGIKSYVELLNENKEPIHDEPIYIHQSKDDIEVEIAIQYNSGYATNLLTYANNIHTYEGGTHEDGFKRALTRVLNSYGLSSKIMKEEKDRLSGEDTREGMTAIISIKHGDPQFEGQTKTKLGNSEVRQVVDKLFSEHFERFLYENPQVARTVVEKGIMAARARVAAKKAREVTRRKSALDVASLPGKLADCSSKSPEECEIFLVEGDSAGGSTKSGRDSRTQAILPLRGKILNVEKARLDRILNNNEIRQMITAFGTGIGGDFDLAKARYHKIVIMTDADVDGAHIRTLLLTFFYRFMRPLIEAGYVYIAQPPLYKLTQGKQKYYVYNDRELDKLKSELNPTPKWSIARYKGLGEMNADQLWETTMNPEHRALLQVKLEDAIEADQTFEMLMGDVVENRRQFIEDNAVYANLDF
T1 sequence (P20831 whole entry): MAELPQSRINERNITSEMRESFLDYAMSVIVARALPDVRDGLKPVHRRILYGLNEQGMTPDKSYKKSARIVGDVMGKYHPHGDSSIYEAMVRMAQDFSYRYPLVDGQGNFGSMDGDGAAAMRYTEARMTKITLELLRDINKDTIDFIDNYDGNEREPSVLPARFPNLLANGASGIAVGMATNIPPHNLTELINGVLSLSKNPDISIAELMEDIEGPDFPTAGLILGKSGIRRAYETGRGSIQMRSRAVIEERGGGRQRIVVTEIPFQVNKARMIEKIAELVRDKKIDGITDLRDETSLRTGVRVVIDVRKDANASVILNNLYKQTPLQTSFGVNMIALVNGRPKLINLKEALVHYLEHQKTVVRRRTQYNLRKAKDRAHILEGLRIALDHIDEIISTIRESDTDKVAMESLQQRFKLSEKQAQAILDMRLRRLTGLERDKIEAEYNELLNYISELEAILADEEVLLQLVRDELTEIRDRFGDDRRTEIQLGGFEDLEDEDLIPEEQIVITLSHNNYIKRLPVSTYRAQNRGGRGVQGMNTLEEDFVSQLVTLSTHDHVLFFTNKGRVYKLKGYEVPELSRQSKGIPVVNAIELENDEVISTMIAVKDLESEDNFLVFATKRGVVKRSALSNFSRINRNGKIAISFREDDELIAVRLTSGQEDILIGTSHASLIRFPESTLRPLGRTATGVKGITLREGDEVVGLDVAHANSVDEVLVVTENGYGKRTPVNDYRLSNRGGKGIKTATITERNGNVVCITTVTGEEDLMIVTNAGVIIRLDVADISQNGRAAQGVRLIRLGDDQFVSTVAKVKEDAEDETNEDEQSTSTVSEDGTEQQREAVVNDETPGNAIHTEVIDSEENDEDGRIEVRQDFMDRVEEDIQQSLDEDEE

Row | Compound | MIC (Klebsiella pneumoniae) | MIC (Escherichia coli) | MIC (Enterococcus faecalis [1]) | MIC (Streptococcus pyogenes) | MIC (Staphylococcus aureus [2]) | MIC (Haemophilus influenzae) | MIC (Streptococcus pneumoniae [3]) | MIC (Pseudomonas aeruginosa) | MIC (Staphylococcus aureus [4]) | MIC (Streptococcus pneumoniae [5]) | MIC (Enterococcus faecalis [6]) | MIC (Enterococcus faecalis [7]) | MIC (Enterococcus faecalis [8]) | Activity (Mus musculus [9]) | Activity (Mus musculus [10]) | Activity (Mus musculus [11]) | Activity (Mus musculus [12]) | Activity (Mus musculus [13]) | further results
1 | O=C(O)c1cn2c3c(c(N4C[C@H](CNC5CC5)[C@H](F)C4)c(F)cc3c1=O)OC[C@@H]2CF | 0.031 µg/mL (≈ 0.0709 µM) | 0.008 µg/mL (≈ 0.0183 µM) | 0.063 µg/mL (≈ 0.144 µM) | 0.031 µg/mL (≈ 0.0709 µM) | 0.008 µg/mL (≈ 0.0183 µM) | 0.004 µg/mL (≈ 0.00914 µM) | 0.016 µg/mL (≈ 0.0366 µM) | 2 µg/mL (≈ 4.57 µM) | 1 µg/mL (≈ 2.29 µM) | 0.25 µg/mL (≈ 0.572 µM) | 1 µg/mL (≈ 2.29 µM) | 0.5 µg/mL (≈ 1.14 µM) | 0.5 µg/mL (≈ 1.14 µM) | Non-toxic | Non-toxic | > 40 µg | > 40 µg | Non-toxic | IC50 (DNA gyrase [14]): 2.42 µM; IC50 (DNA gyrase [15]): 31.1 µM; IC50 [16]: 1.27 µg/mL (≈ 2.9 µM); IC50 [17]: 7 µg/mL (≈ 16 µM); MIC (Staphylococcus aureus [18]): 0.016 µg/mL (≈ 0.0366 µM); MIC (Staphylococcus aureus [19]): 0.031 µg/mL (≈ 0.0709 µM); MIC (Staphylococcus aureus [20]): 0.25 µg/mL (≈ 0.572 µM); MIC (Staphylococcus aureus [21]): 0.5 µg/mL (≈ 1.14 µM); MIC (Staphylococcus aureus [22]): 4 µg/mL (≈ 9.14 µM); ED50 (Staphylococcus aureus [23]): 0.12 mg/kg; ED50 (Staphylococcus aureus [24]): 0.5 mg/kg; ED50 (Streptococcus pneumoniae [25]): 2.9 mg/kg; ED50 (Streptococcus pneumoniae [26]): 4 mg/kg
2 | CCNCC1CCN(c2c(F)cc3c(=O)c(C(=O)O)cn4c3c2OC[C@@H]4C)C1 (stereo partly specified) |  | 0.031 µg/mL (≈ 0.0796 µM) | 0.25 µg/mL (≈ 0.642 µM) | 0.063 µg/mL (≈ 0.162 µM) | 0.125 µg/mL (≈ 0.321 µM) |  | 0.063 µg/mL (≈ 0.162 µM) | 4 µg/mL (≈ 10.3 µM) | 32 µg/mL (≈ 82.2 µM) | 2 µg/mL (≈ 5.14 µM) | 32 µg/mL (≈ 82.2 µM) | 16 µg/mL (≈ 41.1 µM) | 16 µg/mL (≈ 41.1 µM) |  |  |  |  |  | 
3 | C[C@H]1CN(c2c(F)cc3c(=O)c(C(=O)O)cn4c3c2OC[C@@H]4CF)C[C@@H]1CNC1CC1 | 0.125 µg/mL (≈ 0.288 µM) | 0.016 µg/mL (≈ 0.0369 µM) | 0.063 µg/mL (≈ 0.145 µM) | 0.031 µg/mL (≈ 0.0715 µM) | 0.008 µg/mL (≈ 0.0185 µM) | 0.008 µg/mL (≈ 0.0185 µM) | 0.031 µg/mL (≈ 0.0715 µM) | 4 µg/mL (≈ 9.23 µM) | 2 µg/mL (≈ 4.61 µM) | 0.5 µg/mL (≈ 1.15 µM) | 1 µg/mL (≈ 2.31 µM) | 1 µg/mL (≈ 2.31 µM) | 1 µg/mL (≈ 2.31 µM) | Non-toxic |  | 40 µg | 20 µg | Non-toxic | 
4 | C[C@H]1COc2c(N3C[C@H](CNC4CC4)[C@H](F)C3)c(F)cc3c(=O)c(C(=O)O)cn1c23 | 0.031 µg/mL (≈ 0.0739 µM) | 0.008 µg/mL (≈ 0.0191 µM) | 0.063 µg/mL (≈ 0.15 µM) | 0.031 µg/mL (≈ 0.0739 µM) | 0.008 µg/mL (≈ 0.0191 µM) | 0.004 µg/mL (≈ 0.00954 µM) | 0.016 µg/mL (≈ 0.0381 µM) | 2 µg/mL (≈ 4.77 µM) | 1 µg/mL (≈ 2.38 µM) | 0.125 µg/mL (≈ 0.298 µM) | 0.5 µg/mL (≈ 1.19 µM) | 0.5 µg/mL (≈ 1.19 µM) | 0.5 µg/mL (≈ 1.19 µM) | Non-toxic | Non-toxic | > 40 µg | > 40 µg |  | 
5 | O=C(O)c1cn2c3c(c(N4CC[C@@H](CNC5CC5)C4)c(F)cc3c1=O)OC[C@@H]2CF | 0.031 µg/mL (≈ 0.0739 µM) | 0.004 µg/mL (≈ 0.00954 µM) | 0.063 µg/mL (≈ 0.15 µM) | 0.031 µg/mL (≈ 0.0739 µM) | 0.008 µg/mL (≈ 0.0191 µM) | 0.004 µg/mL (≈ 0.00954 µM) | 0.016 µg/mL (≈ 0.0381 µM) | 2 µg/mL (≈ 4.77 µM) | 2 µg/mL (≈ 4.77 µM) | 0.25 µg/mL (≈ 0.596 µM) | 1 µg/mL (≈ 2.38 µM) | 0.5 µg/mL (≈ 1.19 µM) | 0.5 µg/mL (≈ 1.19 µM) | Non-toxic |  | 10 µg | 10 µg | Non-toxic | 
6 | C[C@@H]1CN(c2c(F)cc3c(=O)c(C(=O)O)cn4c3c2OC[C@@H]4C)C[C@@H]1CNC1CC1 | 0.063 µg/mL (≈ 0.152 µM) | 0.016 µg/mL (≈ 0.0385 µM) | 0.063 µg/mL (≈ 0.152 µM) | 0.016 µg/mL (≈ 0.0385 µM) | 0.008 µg/mL (≈ 0.0193 µM) | 0.004 µg/mL (≈ 0.00963 µM) | 0.016 µg/mL (≈ 0.0385 µM) | 2 µg/mL (≈ 4.81 µM) | 0.5 µg/mL (≈ 1.2 µM) | 0.125 µg/mL (≈ 0.301 µM) | 1 µg/mL (≈ 2.41 µM) | 1 µg/mL (≈ 2.41 µM) | 1 µg/mL (≈ 2.41 µM) | Toxic |  | > 40 µg | > 40 µg |  | 
7 | C[C@H]1COc2c(N3CC[C@@H](CNC4CC4)C3)c(F)cc3c(=O)c(C(=O)O)cn1c23 | 0.063 µg/mL (≈ 0.157 µM) | 0.008 µg/mL (≈ 0.0199 µM) | 0.063 µg/mL (≈ 0.157 µM) | 0.016 µg/mL (≈ 0.0399 µM) | 0.008 µg/mL (≈ 0.0199 µM) | 0.016 µg/mL (≈ 0.0399 µM) | 0.016 µg/mL (≈ 0.0399 µM) | 2 µg/mL (≈ 4.98 µM) | 2 µg/mL (≈ 4.98 µM) | 0.25 µg/mL (≈ 0.623 µM) | 1 µg/mL (≈ 2.49 µM) | 0.5 µg/mL (≈ 1.25 µM) | 0.5 µg/mL (≈ 1.25 µM) | Non-toxic | Toxic | 20 µg | 20 µg |  | 

— ChEMBL document CHEMBL1150336, “Synthesis and antibacterial activity of novel pyrido[1,2,3-de][1,4]benzoxazine-6-carboxylic acid derivatives carrying the 3-cyclopropylaminomethyl-4-substituted-1-pyrrolidinyl group as a C-10 substituent” (J Med Chem, 2008)
